The source made the active and inactive calls. No cut-off for these calls is given here.

The test system of assay [1] is Escherichia coli. Description: Inhibition of Escherichia coli RNAP assessed as incorporation of [5,6-3H]UTP at 100 uM preincubated for 10 mins followed by DNA template and ATP, CTP, GTP, UTP, [5,6-3H]UTP addition measured after 10 mins by scintillation counting analysis.
For assay [2], the system named is Pseudomonas aeruginosa. Description: Inhibition of Pseudomonas aeruginosa His-6-tagged PqsD expressed in Escherichia coli BL21 (lambdaDE3) using anthraniloyl-CoA/beta-ketodecanoic acid at 10 uM as substrate by LC-MS/MS analysis.
Assay [3] relates to Pseudomonas aeruginosa. Description: Inhibition of Pseudomonas aeruginosa His-6-tagged PqsD expressed in Escherichia coli BL21 (lambdaDE3) using anthraniloyl-CoA/beta-ketodecanoic acid at 25 uM as substrate by LC-MS/MS analysis.
Assay [4] deals with Escherichia coli. The assay can be described thus: Inhibition of Escherichia coli RNAP assessed as incorporation of [5,6-3H]UTP at 50 uM preincubated for 10 mins followed by DNA template and ATP, CTP, GTP, UTP, [5,6-3H]UTP addition measured after 10 mins by scintillation counting analysis.
Assay [5] is described as follows: Inhibition of Pseudomonas aeruginosa His-6-tagged PqsD expressed in Escherichia coli BL21 (lambdaDE3) using anthraniloyl-CoA/beta-ketodecanoic acid as substrate by LC-MS/MS analysis. The settings on record: read-out: IC50.
A short description of assay [6]: Selectivity index, ratio of IC50 for Escherichia coli RNAP to IC50 for Pseudomonas aeruginosa PqsD.
Assay [7] can be described thus: Inhibition of Escherichia coli RNAP assessed as incorporation of [5,6-3H]UTP preincubated for 10 mins followed by DNA template and ATP, CTP, GTP, UTP, [5,6-3H]UTP addition measured after 10 mins by scintillation counting analysis. The note with it: read-out: IC50.
The test system of assay [8] is Pseudomonas aeruginosa. The assay can be described thus: Inhibition of Pseudomonas aeruginosa His-6-tagged PqsD expressed in Escherichia coli BL21 (lambdaDE3) using anthraniloyl-CoA/beta-ketodecanoic acid at 50 uM as substrate by LC-MS/MS analysis.

As to `O=C(O)c1ccc(NC(=O)c2ccc(-c3ccccc3)cc2)cc1`, the inhibition (commonly the drop in the measured response relative to a control, in per cent) with Escherichia coli [1] turned out to be 15%. The inhibition entry with Pseudomonas aeruginosa [2] is “inactive”.
Compound `COc1ccc(C(=O)O)c(NC(=O)c2ccc(-c3ccccc3)cc2)c1` gave an inhibition in the assay with Pseudomonas aeruginosa [3] of 43%.
Consider `CCN(CC)S(=O)(=O)c1cccc(C(=O)Nc2ccc(Br)cc2C(=O)O)c1`, for which the inhibition entry in the assay on Escherichia coli [4] is “inactive”.
Same read-out and setting: the figure for `CCN(CC)S(=O)(=O)c1cccc(C(=O)Nc2ccc(-c3ccc(C(=O)O)cc3)cc2C(=O)O)c1` is 23%.
In the case of `O=C(Nc1cccc(O)c1C(=O)O)c1ccc(-c2ccccc2)cc1`, the IC50 (as a rule, the concentration at which inhibition is half-maximal) was found to be 1.3 µM in assay [5] and 74 µM in assay [7]. Further, the Ratio IC50 in assay [6] is 50.
As for `O=C(Nc1sc(-c2ccccc2)cc1C(=O)O)c1ccc(-c2ccccc2)cc1`, the inhibition in the assay on Pseudomonas aeruginosa [8] was found to be 28%; with Escherichia coli [4], 33%.
For `CCN(CC)S(=O)(=O)c1cccc(C(=O)Nc2ccc(C(F)(F)F)cc2C(=O)O)c1`, the inhibition entry with Escherichia coli [4] is “inactive”.
Consider `O=C(O)c1cccc(NC(=O)c2ccc(-c3ccccc3)cc2)c1`, for which the inhibition in the assay with Escherichia coli [1] is 31%; in the assay on Pseudomonas aeruginosa [3], 25%.

Values taken from ChEMBL document CHEMBL3124812, “Benzamidobenzoic acids as potent PqsD inhibitors for the treatment of Pseudomonas aeruginosa infections” (Eur J Med Chem, 2014).
